Read-outs that look alike come from different tables or passages of the source.
Legend:
EP4 [1] = molecular target: T1, EP4 (Homo sapiens (Human), UniProt P35408); assay: EP4 radioligand binding (Ki), [3H]PGE2; conditions: EP4, HEK-293 membranes
Method: (§1) HEK-293 cells stably expressing the human or feline FP receptor, or EP1, EP2, or EP4 receptors were washed with TME buffer, scraped from the bottom of the flasks, and homogenized for 30 sec using a Brinkman PT 10/35 polytron. TME buffer was added to achieve a final 40 ml volume in the centrifuge tubes (the composition of TME is 100 mM TRIS base, 20 mM MgCl2, […]; 10N HCl is added to achieve a pH of 7.4).
(§2) The cell homogenate was centrifuged at 19000 r.p.m. for 20 min at 4° C. using a Beckman Ti-60 rotor. The resultant pellet was resuspended in TME buffer to give a final 1 mg/ml protein concentration, as determined by Biorad assay. Radioligand binding competition assays vs. [^3H-]17-phenyl PGF2a (5 nM) were performed in a 100 μl volume for 60 min. Binding reactions were started by adding plasma membrane fraction. The reaction was terminated by the addition of 4 ml ice-cold TRIS-HCl buffer and rapid filtration through glass fiber GF/B filters using a Brandel cell harvester. The filters were washed 3 times with ice-cold buffer and oven dried for one hour.
(§3) [^3H—] PGE2 (specific activity 180 Ci mmol) was used as the radioligand for EP receptors. [^3H] 17-phenyl PGF2a was employed for FP receptor binding studies. Binding studies employing EP1, EP2, EP4 and FP receptors were performed in duplicate in at least three separate experiments. A 200 μl assay volume was used. Incubations were for 60 min at 25° C. and were terminated by the addition of 4 ml of ice-cold 50 mM TRIS-HCl, followed by rapid filtration through Whatman GF/B filters and three additional 4 ml washes in a cell harvester (Brandel). Competition studies were performed using a final concentration of 5 nM [^3H]-PGE2, or 5 nM [^3H] 17-phenyl PGF2a and non-specific binding determined with 10^−5M of unlabeled PGE2, or 17-phenyl PGF2a, according to receptor subtype studied.

EP2 [2] = molecular target: T2, EP2 (Homo sapiens (Human), UniProt P43116); assay: EP2 competition binding (Ki), [3H]PGE2; conditions: EP2, HEK 293 cells
Method: Competition binding experiments were performed in a medium containing Hank's balanced salt solution, Hepes 20 mM, pH 7.3, membranes (˜60 μg protein) or 2×10^5 cells from HEK 293 cells stably expressing human EP2 receptors, [^3H]PGE2 (10 nM) and various concentrations of test compounds in a total volume of 300 μl. Reaction mixtures were incubated at 23° C. for 60 min, and were filtered over Whatman GF/B filters under vacuum. Filters were washed three times with 5 ml ice-cold buffer containing 50 mM Tris/HCl (pH 7.3). Non-specific binding was estimated in the presence of excess unlabeled PGE2 (10 μM). Binding data fitted to the binding model for a single class of binding sites, using nonlinear regression analysis.
as §1, §2, §3

EP4 [3] = molecular target: T1, EP4; assay: EP4 cAMP EC50; format: cell-based
EP2 [4] = molecular target: T2, EP2; assay: EP2 cAMP EC50; format: cell-based

T1 sequence (P35408 whole entry): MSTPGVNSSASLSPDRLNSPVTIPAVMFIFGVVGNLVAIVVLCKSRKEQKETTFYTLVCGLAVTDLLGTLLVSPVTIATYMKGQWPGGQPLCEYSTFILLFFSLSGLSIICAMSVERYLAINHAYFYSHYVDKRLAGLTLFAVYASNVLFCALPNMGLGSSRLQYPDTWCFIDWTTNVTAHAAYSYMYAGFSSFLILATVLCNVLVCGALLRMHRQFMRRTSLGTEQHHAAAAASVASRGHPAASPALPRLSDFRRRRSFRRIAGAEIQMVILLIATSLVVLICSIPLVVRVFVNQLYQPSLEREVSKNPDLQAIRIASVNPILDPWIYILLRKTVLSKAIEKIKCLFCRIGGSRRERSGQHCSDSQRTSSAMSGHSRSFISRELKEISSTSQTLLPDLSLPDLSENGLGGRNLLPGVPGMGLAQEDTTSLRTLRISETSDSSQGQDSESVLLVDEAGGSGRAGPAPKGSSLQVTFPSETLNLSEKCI
T2 sequence (P43116 whole entry): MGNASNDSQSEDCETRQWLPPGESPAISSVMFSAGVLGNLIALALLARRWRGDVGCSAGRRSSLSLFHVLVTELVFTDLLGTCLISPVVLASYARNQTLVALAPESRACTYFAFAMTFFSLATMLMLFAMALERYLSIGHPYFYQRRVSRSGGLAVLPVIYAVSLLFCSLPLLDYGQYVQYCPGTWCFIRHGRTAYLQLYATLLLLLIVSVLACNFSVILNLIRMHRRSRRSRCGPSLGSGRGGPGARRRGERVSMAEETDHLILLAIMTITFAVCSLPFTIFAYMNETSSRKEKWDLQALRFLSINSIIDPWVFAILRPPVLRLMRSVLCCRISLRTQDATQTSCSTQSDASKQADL

| Structure (SMILES) | EP4 Ki (EP4 [1]; read-out: EP4 Ki EC50) [nM] | Ki (EP2 [2]) [nM] | EC50 (EP4 [3]) [nM] | EC50 (EP2 [4]) [nM] | EP4 Ki (EP4 [1]) [nM] | EP4 cAMP EC50 (EP4 [3]) [nM] | EP2 Ki (EP2 [2]) [nM] |
| --- | --- | --- | --- | --- | --- | --- | --- |
| COc1cc(CC2CCc3cccc(CCc4ccc(C(=O)O)cc4)c32)cc(OC)c1 (stereo not shown) [Entry 1] | 3 | 2 | 7.2 |  |  |  |  |
| COc1cc(/C=C2\CCc3cccc(CCc4ccc(C(=O)O)cc4)c32)cc(OC)c1 [Entry 2] | 42 | 95 | 7 | 28 |  |  |  |
| COc1cc(CC2=CCCc3cccc(CCc4ccc(C(=O)O)cc4)c32)cc(OC)c1 [Entry 3] | 90 | 116 | 43 | 130 |  |  |  |
| COc1ccc(OC)c(CC2=CCc3cccc(CCc4ccc(C(=O)O)cc4)c32)c1 [Entry 4] | 52 | 61 | 71 |  |  |  |  |
| COc1cccc(CC2=CCc3cccc(CCc4ccc(C(=O)O)cc4)c32)c1OC [Entry 6] | 251 | 53 | 562 |  |  |  |  |
| O=C(O)c1ccc(CCc2cccc3c2N(Cc2ccc4ccccc4c2)CC3)cc1 [Entry 6] | 174 |  |  |  |  |  |  |
| COc1ccc(CC2=CCc3cccc(CCc4ccc(C(=O)O)cc4)c32)cc1OC [Entry 7] | 34 | 20 | 33 | 161 |  |  |  |
| O=C(O)c1ccc(CCc2cccc3c2N(Cc2cc(OCc4ccccc4)cc(OCc4ccccc4)c2)CC3)cc1 [Entry 7] | 5850 |  |  |  |  |  |  |
| COc1ccccc1CC1=CCc2cccc(CCc3ccc(C(=O)O)cc3)c21 [Entry 8] | 71 | 67 | 107 | 57 |  |  |  |
| O=C(O)c1ccc(CCc2cccc3c2N(Cc2ccc4c(c2)OCO4)CC3)cc1 [Entry 8] | 453 |  |  |  |  |  |  |
| COc1cc(CN2CCCc3cccc(CCc4ccc(C(=O)O)cc4)c32)cc(OC)c1 [Entry 9] | 453 |  |  |  |  |  |  |
| COc1ccc(CC2=CCc3cccc(CCc4ccc(C(=O)O)cc4)c32)cc1 [Entry 9] | 195 | 27 | 93 | 114 |  |  |  |
| COc1cccc(CCN2Cc3cccc(CCc4ccc(C(=O)O)cc4)c3C2)c1 [Entry 10] |  |  |  |  | > 10000 | > 10000 |  |
| O=C(O)c1ccc(CCc2cccc3c2C(Cc2cc(Cl)cc(Cl)c2)=CC3)cc1 [Entry 10] | 56 | 18 | 23 | 2 |  |  |  |
| COc1cccc(CN2Cc3cccc(CCc4ccc(C(=O)O)cc4)c3C2)c1 [Entry 11] |  |  |  |  |  | > 10000 |  |
| Cc1cc(C)cc(CC2=CCc3cccc(CCc4ccc(C(=O)O)cc4)c32)c1 [Entry 11] | 240 | 6 | 220 | 13 |  |  |  |
| COc1cc(CC2=CCc3c(F)ccc(CCc4ccc(C(=O)O)cc4)c32)cc(OC)c1 [Entry 12] | 52 | 83 | 41 | 25 |  |  |  |

| Structure (SMILES) | EP4 Ki (EP4 [1]; read-out: EP4 Ki EC50) [nM] | Ki (EP2 [2]) [nM] | EC50 (EP4 [3]) [nM] | EC50 (EP2 [4]) [nM] | EP4 Ki (EP4 [1]) [nM] | EP4 cAMP EC50 (EP4 [3]) [nM] | EP2 Ki (EP2 [2]) [nM] |
| --- | --- | --- | --- | --- | --- | --- | --- |
| COc1cc(CC2CCc3cccc(OCc4ccc(C(=O)O)cc4)c32)cc(OC)c1 (stereo not shown) [Entry 13] | 154 | 469 | 16 |  |  |  |  |
| COc1cc(CN2CCc3cccc(CCc4ccc(C(=O)O)s4)c32)cc(OC)c1 [Entry 13] | 161 | 47 |  |  |  |  |  |
| COc1cc(/C=C2\CCc3cccc(OCc4ccc(C(=O)O)cc4)c32)cc(OC)c1 [Entry 14] | 1490 |  |  |  |  | > 10000 | > 10000 |
| COc1cc(CC2=CCc3cccc(CCc4ccc(C(=O)O)cc4)c32)cc(OC)c1 [Entry 15] | 0.8 | 3 | 1 | 11 |  |  |  |
| COc1cccc(Cn2ccc3cccc(CCc4ccc(C(=O)O)cc4)c32)c1 [Entry 15] |  |  | 3130 |  |  |  |  |
| COc1cc(CC2=CCc3ccc(OC)c(CCc4ccc(C(=O)O)cc4)c32)cc(OC)c1 [Entry 16] | 469 | 1700 |  |  |  |  |  |
| COc1cccc(CC(=O)N2CCc3cccc(CCc4ccc(C(=O)O)cc4)c32)c1 [Entry 17] |  |  |  |  |  | > 10000 | > 10000 |
| O=C(O)c1ccc(CCc2cccc3c2C(Cc2cc(C(F)(F)F)cc(C(F)(F)F)c2)=CC3)cc1 [Entry 17] | 736 | 8 | 296 |  |  |  |  |
| O=C(O)c1ccc(CCc2cccc3c2C(Cc2cc(F)cc(F)c2)=CC3)cc1 [Entry 18] | 134 | 27 | 57 | 6 |  |  |  |
| COc1cc(CC2=CCc3cc(F)cc(CCc4ccc(C(=O)O)cc4)c32)cc(OC)c1 [Entry 19] | 0.4 | 18 | 2 | 36 |  |  |  |
| COc1cc(OC)cc(S(=O)(=O)N2CCc3cccc(CCc4ccc(C(=O)O)cc4)c32)c1 [Entry 19] | 8230 | 776 |  |  |  | > 10000 |  |
| COc1cc(CC2=CCc3cccc(-c4cccc(/C=C/C(=O)O)c4)c32)cc(OC)c1 [Entry 20] | 1230 |  |  |  |  |  | > 10000 |
| COc1cccc(S(=O)(=O)N2CCc3cccc(CCc4ccc(C(=O)O)cc4)c32)c1 [Entry 20] |  |  |  |  | > 10000 | > 10000 |  |
| COc1cc(CC2=CCc3cccc(/C=C/c4ccc(C(=O)O)cc4)c32)cc(OC)c1 [Entry 21] | 1200 | 4770 |  |  |  | > 10000 |  |
| COc1cc(CC2=CCc3cccc(-c4cccc(OCC(=O)O)c4)c32)cc(OC)c1 [Entry 22] | 1170 |  |  |  |  |  | > 10000 |
| COc1cc(CC2=CCc3cccc(-c4ccc(OCC(=O)O)cc4)c32)cc(OC)c1 [Entry 23] | 4470 |  |  |  |  | > 10000 | > 10000 |
| COc1cc(CC2=CCc3cccc(C#Cc4ccc(C(=O)O)cc4)c32)cc(OC)c1 [Entry 24] | 3600 |  |  |  |  | > 10000 | > 10000 |

Source: US9546162B2, “Compounds and methods for skin repair” (Allergan, Inc., priority 2013, dated 2017)
